Experimental data: PubChem BioAssay (NCI)
Several values for one entry are separate records, joined by “and”; a condition that tells them apart may be missing. Equal entries are not always repeated.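 Five compound concentrations were applied to cells in 96-well plates for 48 hours; endpoints were derived by simple linear interpolation of the resulting dose-response curve. GI50 is the concentration that inhibits growth by half. The concentration for full growth arrest is given as TGI.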

What was measured:
Assay in all cases: NCI anticancer screen, dose series, 48 h
[1] = tested on: OVCAR-4 ovarian
[2] = tested on: UACC-257 melanoma
[3] = tested on: OVCAR-5 ovarian
[4] = tested on: UACC-62 melanoma
[5] = tested on: NCI/ADR-RES ovarian
[6] = tested on: HL-60(TB) leukemia
[7] = tested on: MCF7 breast
[8] = tested on: HT29 colon
[9] = tested on: MDA-MB-231 breast
[10] = tested on: IGROV1 ovarian
[11] = tested on: CCRF-CEM leukemia
[12] = tested on: MALME-3M melanoma

`Cn1c(-c2ccc(/C=N\N3CCN(/N=C/c4ccc(-c5c[n+]6ccccc6n5C)cc4)CC3)cc2)c[n+]2ccccc12` showed a TGI [1] of over 100 µM, a TGI [2] of over 100 µM and a TGI [3] of over 100 µM. It also gave a TGI [4] of over 100 µM, a TGI [5] of over 100 µM and a TGI [6] of 56.9 µM. The TGI [7] was over 100 µM, the TGI [8] was over 100 µM and the TGI [9] was 75 µM. It also gave a TGI [10] of over 100 µM and a TGI [11] of over 100 µM.

For `CNC(=O)c1[nH]cnc1/N=N/N(C)N`, the TGI [1] was over 100 µM, the TGI [2] was over 100 µM and the TGI [3] was over 100 µM. For the same compound, the TGI [4] was over 100 µM, the TGI [5] was over 100 µM and the TGI [12] was over 100 µM. It also gave a TGI [8] of over 100 µM, a TGI [9] of over 100 µM and a TGI [10] of over 100 µM.

Work on `COc1cccc(-c2cc(=O)c3c(C)ccnc3[nH]2)c1` yielded a TGI [1] of over 100 µM, a TGI [3] of over 100 µM and a TGI [4] of over 100 µM. The TGI [6] was 0.0532 µM, the TGI [7] was over 100 µM and the TGI [12] was over 100 µM. For the same compound, the TGI [8] was over 100 µM, the TGI [9] was over 100 µM and the TGI [10] was over 100 µM. For the same compound, the TGI [11] was 0.218 µM.

Compound `COc1ccc(NC(=O)/C(CC2=Nc3ccc([N+](=O)[O-])cc3NC2O)=N\NC(=O)C[N+](C)(C)C)c(OC)c1` (centres undefined) has a TGI [1] of over 100 µM, a TGI [2] of over 100 µM and a TGI [3] of over 100 µM. For the same compound, the TGI [4] was over 100 µM, the TGI [5] was over 100 µM and the TGI [6] was over 100 µM. It also gave a TGI [7] of over 100 µM, a TGI [8] of over 100 µM and a TGI [9] of 42.1 µM. The TGI [10] was over 100 µM and the TGI [11] was over 100 µM.

With `CN(CCc1ccc(N)cc1)[C@H]1CCCC[C@H]1N1CCCC1` the TGI [1] was over 100 µM, the TGI [2] was over 100 µM and the TGI [3] was over 100 µM. It also gave a TGI [4] of over 100 µM, a TGI [5] of over 100 µM and a TGI [6] of over 100 µM. For the same compound, the TGI [7] was over 100 µM, the TGI [12] was over 100 µM and the TGI [8] was over 100 µM. For the same compound, the TGI [9] was over 100 µM and the TGI [10] was over 100 µM.

`CCN(CC)C(=S)SS(=O)(=O)c1ccc([N+](=O)[O-])cc1` was tested, and the GI50 [1] was 45.5 µM, the TGI [1] was over 100 µM and the GI50 [2] was 24 µM. The TGI [2] was 53.5 µM, the TGI [3] was over 100 µM and the TGI [4] was over 100 µM. It also gave a GI50 [5] of 48.3 µM, a TGI [5] of over 100 µM and a TGI [12] of 37.9 µM. The GI50 [8] was 22 µM, the TGI [8] was 64.7 µM and the GI50 [9] was 25.9 µM. It also gave a TGI [9] of 66.4 µM.

For `CCOC(=O)C(NC(=O)Nc1ccc(Cl)c(Cl)c1)C(F)(F)F` (centres undefined), the TGI [2] was over 100 µM, the TGI [3] was over 100 µM and the TGI [5] was over 100 µM. It also gave a TGI [6] of over 100 µM, a TGI [8] of over 100 µM and a TGI [10] of over 100 µM. The TGI [11] was over 100 µM.

`Cn1c(-c2cccs2)cc(-c2cccs2)c1-c1ccsc1` gave a TGI [1] of over 100 µM, a TGI [2] of over 100 µM and a TGI [3] of over 100 µM. It also gave a TGI [4] of over 100 µM, a TGI [5] of over 100 µM and a TGI [6] of over 100 µM. It also gave a TGI [7] of over 100 µM, a TGI [8] of over 100 µM and a TGI [9] of over 100 µM. The TGI [11] was over 100 µM.

With `Nc1nc(Cl)cc(Nc2cc(Cl)cc(Cl)c2)n1` the TGI [1] was 46.6 µM, the TGI [2] was 32.8 µM and the TGI [3] was 76.7 µM. It also gave a TGI [4] of 33.5 µM, a TGI [5] of 44 µM and a TGI [7] of 41.6 µM. The TGI [12] was 37.8 µM, the TGI [8] was 30.6 µM and the TGI [9] was 36.3 µM. It also gave a TGI [10] of 35.4 µM and a TGI [11] of 51.7 µM.

For `Cc1cc2c(c(C=NCc3ccccc3)c1)OC1(C=C2)Oc2ccccc2C(=O)N1C` (centres undefined), the TGI [1] was 69.9 µM, the TGI [2] was 67 µM and the TGI [3] was 56 µM. For the same compound, the TGI [4] was 48.2 µM, the TGI [5] was 48 µM and the TGI [6] was 60.2 µM. It also gave a TGI [7] of over 100 µM, a TGI [8] of 51.7 µM and a TGI [9] of 78.1 µM. The TGI [10] was 68.1 µM and the TGI [11] was 36.3 µM.

`CC(C)=CCSC1CC2C(CC1(C)O)C2(C)C` (centres undefined) was tested, and the TGI [1] was 35 µM and 29.2 µM, the GI50 [2] was 18.3 µM and 7.13 µM and the TGI [2] was 32.6 µM and 20.6 µM. For the same compound, the TGI [3] was 28.2 µM and 30.1 µM, the TGI [4] was 29.2 µM and 31.7 µM and the GI50 [6] was 34.1 µM and 3.82 µM. For the same compound, the TGI [6] was > 100 µM and 19.7 µM, the TGI [12] was 31.2 µM and 30.4 µM and the TGI [8] was 29 µM and 28.2 µM. The TGI [10] was 31.3 µM and 33 µM, the GI50 [11] was 26 µM and 12.8 µM and the TGI [11] was > 100 µM and 38.7 µM.

For `COc1cc2c(cc1OC)CC(N=[N+]=[N-])c1cc(OC)c(OC)cc1/C=C\2` (centres undefined), the TGI [1] was over 100 µM, the TGI [2] was over 100 µM and the TGI [3] was over 100 µM. It also gave a TGI [4] of over 100 µM, a TGI [5] of over 100 µM and a TGI [6] of over 100 µM. It also gave a TGI [7] of over 100 µM, a TGI [8] of over 100 µM and a TGI [9] of over 100 µM. The TGI [10] was over 100 µM.

For `COCc1cc2c(cc1/C=C/[N+](=O)[O-])OCO2`, the TGI [2] was 30.8 µM, the TGI [3] was 30.6 µM and the TGI [4] was 32 µM. It also gave a TGI [5] of 47 µM, a TGI [6] of 85.6 µM and a TGI [7] of 48.9 µM. The TGI [8] was 34.6 µM, the TGI [9] was 34.7 µM and the TGI [10] was 51.1 µM. It also gave a TGI [11] of 37.7 µM.

Compound `COc1ccc(CCNC(=O)Cc2cc(OC)c(OC)cc2CO)cc1OC` has a TGI [1] of over 100 µM, a TGI [2] of over 100 µM and a TGI [3] of over 100 µM. For the same compound, the TGI [4] was over 100 µM, the TGI [5] was over 100 µM and the TGI [6] was over 100 µM. For the same compound, the TGI [7] was over 100 µM, the TGI [8] was over 100 µM and the TGI [9] was over 100 µM. It also gave a TGI [10] of over 100 µM and a TGI [11] of over 100 µM.

`C1=C\CCCCN2C[C@H]3CCCC/C=C\CCCCN4CC[C@@H]([C@H](CCCCCC/1)C4)[C@H](C3)C2` showed a TGI [1] of 6.11 µM, a TGI [2] of 3.28 µM and a TGI [3] of 21.4 µM. The TGI [4] was 3.67 µM, the TGI [5] was 9.89 µM and the TGI [6] was 12.1 µM. It also gave a TGI [7] of 4.5 µM, a TGI [12] of 3.56 µM and a TGI [8] of 5.1 µM. The TGI [9] was 3.01 µM and the TGI [10] was 11.3 µM.

For `COC(=O)c1csc(-c2nc(CCNC(=O)OC(C)(C)C)sc2Br)n1`, the TGI [2] was over 100 µM, the TGI [3] was over 100 µM and the TGI [4] was over 100 µM. For the same compound, the TGI [5] was over 100 µM, the TGI [6] was over 100 µM and the TGI [7] was over 100 µM. For the same compound, the TGI [12] was over 100 µM, the TGI [8] was over 100 µM and the TGI [10] was over 100 µM. It also gave a TGI [11] of over 100 µM.

In the case of `COc1ccc2c3c1OC1c4[nH]c5ccccc5c4CC4(O)C(C2)N(C)CCC314` (centres undefined), the TGI [1] is reported as over 100 µM, the TGI [2] is reported as 34.1 µM and the TGI [3] is reported as over 100 µM. For the same compound, the TGI [4] was 57.3 µM, the TGI [5] was over 100 µM and the TGI [7] was 60.4 µM. For the same compound, the TGI [8] was 49.3 µM, the TGI [9] was 77.4 µM and the TGI [10] was over 100 µM. The TGI [11] was 52.8 µM.

With `CCC(=O)O[C@H]1CC[C@H]2[C@@H]3CCC4=C/C(=N/NC(=O)c5cccc6c(=O)c7ccccc7[nH]c56)CC[C@]4(C)[C@H]3CC[C@]12C` the TGI [1] was over 25 µM, the TGI [2] was over 25 µM and the TGI [3] was over 25 µM. For the same compound, the TGI [4] was over 25 µM, the TGI [5] was over 25 µM and the TGI [7] was over 25 µM. For the same compound, the TGI [8] was over 25 µM, the TGI [9] was over 25 µM and the TGI [10] was over 25 µM. The TGI [11] was over 25 µM.

Work on `Cc1c(NC(=S)Nc2ccc(Cl)cc2)c(=O)n(-c2ccccc2)n1C` yielded a TGI [2] of over 100 µM, a TGI [3] of over 100 µM and a TGI [4] of over 100 µM. It also gave a TGI [5] of over 100 µM, a TGI [6] of over 100 µM and a TGI [7] of over 100 µM. The TGI [12] was over 100 µM, the TGI [8] was over 100 µM and the TGI [9] was over 100 µM. The TGI [10] was over 100 µM and the TGI [11] was over 100 µM.

`COc1cc(COC(=O)N2CCC2C(=O)O)c([N+](=O)[O-])cc1OC` (centres undefined) was tested, and the TGI [2] was over 100 µM, the TGI [3] was over 100 µM and the TGI [4] was over 100 µM. For the same compound, the TGI [5] was over 100 µM, the TGI [6] was over 100 µM and the TGI [7] was over 100 µM. The TGI [12] was over 100 µM, the TGI [8] was over 100 µM and the TGI [10] was over 100 µM. For the same compound, the TGI [11] was over 100 µM.
